# Measurements from US8445240B2, “Termite enzymes and uses thereof for in vitro conversion of lignin-containing materials to fermentable products” (University of Florida Research Foundation, Inc., priority 2009, dated 2013).
# “And” between values parts separate entries of the source, which are not always exact repeats. Equal values may be shown once. Read-outs that look alike come from different tables or passages of the source.
# B1: RfLacB: recombinant R. flavipes gut laccase isoform 2, clone Lac12, SEQ ID NO.: 12 (protein)
# chain: VYRSDAYIMLPCVLLACAIGVASATSVLLNSYLQPNDDIDRNTYLLNAKSNNCARICNGTEAPKICYYQWTIENYVTLSEACDNCPLNVTACYNAQCITADGYERSILSVNRKLPGPSIEVCLRDRVIVDITNNMAGRTTSIHWHGVFQKGSQYMDGVPMVTQCTIHEGDTLRYDFIANNEGTHFWHSHDGLQKLDGVTGNLVVRVPKNFDPNGQLYDFDLPEHKIFISDWLHLSADDHFPGLRATNPGQDANSFLINGRGRTLIGTQSTNTPYAQINVQWGRRYRLRIVGSLCTVCPTQLTIDGHKITVIATDGNSVAPARVDSLIIYSGERYDVVLEATNTEGSYWIHLKGLVTCVGSRVYQLGVLQYENTTTNKLHALTPDPGYDGFPQPASYRVLNPENASCSIGSTGLCVTQLANSDPVPRDILTQLPDINYLLQFGFKIFDSRSFFKAYDRYFVSPFLDLVSSTVNNISSVSPPSPLLSQRGDVPDDVLCPTGADGLPQCPGGNSYCTCVHVIKIKLGALVQIILSDQTPKSGLNHPFHLHGHAFYVLGMGQYAAGQTAQDLLNSLKSNVSSVSPAPVLKDTIAVPSGGYAIIKFRPKNPGYWFLHCHFLYHVATGMSVVLQVGETSDYPPTPDGFPKCGSFTPPVNTN
# modifications: Reticulitermes flavipes; amino acid sequence Laccase Lacc-12
# B2: Cell-3: recombinant exoglucanase, amino acid sequence SEQ ID NO.: 4, investigated in unpurified form (protein)
# chain: MVLCILLQWMQIGGKQKYPAFKPGAKYGRGYCDGQCPHDMKVSSGRANVDGWKPQDNDENSGNGKLGTCCWEMDIWEGNLVSQAYTVHAGSKSGQYECTGTQCGDTDSGERFKGTCDKDGCDFASYRWGATDYYGPGKTVDTKQPMTVVTQFIGDPLTEIKRVYVQGGKVINNSKTSNLGSVYDSLTEAFCDDTKQVTGDTNDFKAKGGMSGFSKNLDTPQVLVMSLWDDHTANMLWLDSTYPTDSTKPGAARGTCAVTSGDPKDVESKQANSQVVYSDIKFGPINSTYKAN
# modifications: Reticulitermes flavipes; amino acid sequence exoglucanase (Cell-3)
# How the values were obtained:
# RfLacA = RfLacA (Reticulitermes flavipes, UniProt D0E8H0); test: RfLacA substrate specificity and kinetic parameters
# Sequence of RfLacA (D0E8H0 entry or part of it): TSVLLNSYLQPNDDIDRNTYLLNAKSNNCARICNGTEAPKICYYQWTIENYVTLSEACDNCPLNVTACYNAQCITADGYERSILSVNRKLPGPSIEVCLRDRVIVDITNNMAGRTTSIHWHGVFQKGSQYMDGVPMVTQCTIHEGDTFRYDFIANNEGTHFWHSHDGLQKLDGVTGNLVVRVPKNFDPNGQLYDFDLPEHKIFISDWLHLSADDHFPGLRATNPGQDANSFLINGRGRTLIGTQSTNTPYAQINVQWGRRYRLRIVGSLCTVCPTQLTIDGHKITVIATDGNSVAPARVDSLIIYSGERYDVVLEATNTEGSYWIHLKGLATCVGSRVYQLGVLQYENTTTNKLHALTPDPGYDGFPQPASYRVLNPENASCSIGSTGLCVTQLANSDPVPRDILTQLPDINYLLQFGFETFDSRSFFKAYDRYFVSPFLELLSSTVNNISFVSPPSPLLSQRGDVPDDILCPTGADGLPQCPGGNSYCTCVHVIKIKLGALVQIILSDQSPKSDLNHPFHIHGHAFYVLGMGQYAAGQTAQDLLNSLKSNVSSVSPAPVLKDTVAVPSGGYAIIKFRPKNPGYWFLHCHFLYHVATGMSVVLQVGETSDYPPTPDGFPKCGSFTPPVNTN
# [1] = biological target: T1, recombinant RfBGluc-1 β-glucosidase (Reticulitermes flavipes, UniProt D9ILU1); test: Activity of recombinant RfBGluc-1 towards natural substrates, endpoint glucose detection assay; type: biochemical
# T1 sequence (D9ILU1 18-495): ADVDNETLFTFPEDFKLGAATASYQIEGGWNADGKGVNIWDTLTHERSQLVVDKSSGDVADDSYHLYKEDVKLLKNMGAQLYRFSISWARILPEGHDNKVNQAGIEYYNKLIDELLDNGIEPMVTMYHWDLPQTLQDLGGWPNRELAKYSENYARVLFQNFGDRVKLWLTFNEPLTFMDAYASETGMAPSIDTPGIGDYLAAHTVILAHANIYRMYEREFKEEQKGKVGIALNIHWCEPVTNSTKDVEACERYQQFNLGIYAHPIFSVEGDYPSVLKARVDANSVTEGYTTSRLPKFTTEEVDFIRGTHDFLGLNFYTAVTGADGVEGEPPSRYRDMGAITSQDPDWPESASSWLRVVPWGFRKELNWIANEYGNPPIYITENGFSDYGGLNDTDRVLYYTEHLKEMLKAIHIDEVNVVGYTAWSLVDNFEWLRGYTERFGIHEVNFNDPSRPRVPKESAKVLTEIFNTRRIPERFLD
# Method: Natural carbohydrate substrates (Table 2) were tested in endpoint assays in which color development was enabled using 439-90901 glucose-mutarose detection reagent (Wako Chemical; Richmond, Va.). Assays were conducted in 125 μL for 5 min at room temperature as described above and stopped with the addition of 125 μL glucose detection reagent. After 1 min, the absorbance was read at 505 nm.
# Cell-1 = conditions: for effect on Cell-1 temperature stability: pre-incubation at 60° C. and 70° C., 0-60 min
# Method: Thermal stability tests were conducted using 1.5% CMC in 100 mM sodium phosphate at the optimal pH of 7. Temperature-cofactor studies were performed using 1.5% CMC dissolved in 100 mM sodium phosphate (pH 7) alone, plus 4 mM EDTA (final concentration), or plus 10 mM calcium chloride (final concentration). Pre-incubations took place for 0-5 days at 25° C. or 0-60 min at 60° C. or 70° C.; reactions were terminated by the combination of adding stop solution and boiling for 10 min, and then assays were read at 25° C.
# Calcium as a cofactor in β-1,4-endoglucanase Cell-1 hydrolytic activity and temperature stability: The effects of calcium on recombinant Cell-1 activity were investigated using calcium chloride as a calcium source and EDTA as a potential calcium chelator.
# [2] = biological target: T1, recombinant RfBGluc-1 β-glucosidase; test: Activity of recombinant RfBGluc-1 towards synthetic nitrophenol substrates, kinetic microplate assay; type: biochemical; conditions: percent activity rankings based on Vmax; pNP-βD-Glucopyranoside = 100
# Method: All initial characterization assays took place in 0.1 M sodium acetate buffer (pH 6) using 2 μL of recombinant enzyme preparation (=1.58 μg protein per assay) in a total reaction volume of 250 μL. Synthetic p-nitrophenol substrates (Table 1) were tested in direct kinetic assays using a microplate reader. Reactions were initiated by adding 248 μL assay buffer to 2 μL protein. Assays were read at 420 nm every 20 sec for 5 min to yield mean velocity data in mOD/min. Specific activity was determined with the p-nitrophenol extinction coefficient of 0.6605 mM^−1 cm^−1. All results were averaged from three independent replicates, each conducted in triplicate.
# [3] = Characterisation of recombinant RfLacA and RfLacB isoforms; type: biochemical
# [4] = Recombinant Cell-3 exoglucanase activity in unpurified form; type: biochemical; conditions: for activity toward pNPC relative to uninfected control larvae: homogenates of infected larvae
# Text: Recombinant Cell-3 characterization: The recombinant Cell-3 protein (nucleotide sequence SEQ ID NO.: 3; amino acid sequence SEQ ID NO.: 4) was investigated in unpurified form. […] Other experiments investigating activity in crude homogenates over time and after repeated freeze-thaw cycles further verified reduced Cell-3 stability.
# [5] = RfLacA, 1 mM substrate, hydroquinone = 100
molecule,measurement,setting,value
"COc1cccc(OC)c1O [2,6-DMP, 2,6-dimethoxyphenol]",Optimal pH,"RfLacA; RfLacA, per substrate",7.5
same,Specific Activity at 1 mM [S],"RfLacA; RfLacA, 1 mM substrate",2.146 nmol·min/mg
same,Relative Activity (%),RfLacA; [5],25.63%
Oc1ccc(O)cc1 [Hydroquinone],Optimal pH,RfLacA,7
same,Relative Activity (%),RfLacA,100.00%
same,Specific Activity at 1 mM [S],RfLacA,8.373 nmol·min/mg
same,Apparent Vmax,"RfLacA; RfLacA, footnote: maximal specific activities in nmol/min/mg",0.824 μm min^−1
N[C@@H](Cc1ccc(O)c(O)c1)C(=O)O [L-DOPA],Optimal pH,"RfLacA; RfLacA, per substrate",6.0 and 7.5
same,Specific Activity at 1 mM [S],"RfLacA; RfLacA, 1 mM substrate",0.676 nmol·min/mg
same,Relative Activity (%),RfLacA; [5],8.07%
OC[C@H]1O[C@@H](O[C@H]2[C@H](O)[C@@H](CO)OC(O)[C@@H]2O)[C@H](O)[C@@H](O)[C@@H]1O (stereo partly shown) [Laminaribose],Activity (%),[1],34%
CC(=O)NCCc1ccc(O)c(O)c1 [NADA],Relative Activity (%),RfLacA,9.08%
same,Specific Activity at 1 mM [S],"RfLacA; RfLacA, 1 mM substrate",0.760 nmol·min/mg
NCCC(=O)NCCc1ccc(O)c(O)c1 [NBAD],Specific Activity at 1 mM [S],"RfLacA; RfLacA, 1 mM substrate",0.190 nmol·min/mg
same,Relative Activity (%),RfLacA; [5],2.27%
Oc1ccccc1O [Pyrocatechol],Relative Activity (%),RfLacA,27.65%
same,Optimal pH,"RfLacA; RfLacA, per substrate",7.5
same,Specific Activity at 1 mM [S],"RfLacA; RfLacA, 1 mM substrate",2.315 nmol·min/mg
Oc1cccc(O)c1O [Pyrogallol],Optimal pH,"RfLacA; RfLacA, per substrate",7
same,Specific Activity at 1 mM [S],"RfLacA; RfLacA, 1 mM substrate",1.482 nmol·min/mg
same,Relative Activity (%),RfLacA; [5],17.70%
OCc1ccccc1O[C@@H]1O[C@H](CO)[C@@H](O)[C@H](O)[C@H]1O [Salicin],Activity (%),[1],44%
COc1cc(/C=C/C(=O)O)cc(OC)c1O [Sinapinic Acid],Relative Activity (%),RfLacA,40.40%
same,Optimal pH,"RfLacA; RfLacA, per substrate",7.5
same,Specific Activity at 1 mM [S],"RfLacA; RfLacA, 1 mM substrate",3.383 nmol·min/mg
OC[C@H]1O[C@@](CO)(O[C@H]2O[C@H](CO)[C@@H](O)[C@H](O)[C@H]2O)[C@@H](O)[C@@H]1O [Sucrose],Activity (%),[1],0%
[Ca+2].[Cl-].[Cl-] [calcium chloride],effect on Cell-1 CMC endoglucanase activity,Cell-1; incubations over a 5-day period at about 25° C.,slightly enhanced
same,effect on Cell-1 temperature stability,Cell-1,stabilized/extended CMC hydrolysis activity over time
same,effect on Cell-1 temperature stability,Cell-1; listed as calcium,improves Cell-1 temperature stability
O=[N+]([O-])c1cccc(O[C@H]2O[C@H](CO)[C@H](O)[C@H](O)[C@H]2O)c1 [mNP-αD-Galactopyranoside],Activity (%),[2],0%
O=[N+]([O-])c1ccccc1O[C@@H]1O[C@H](CO)[C@@H](O)[C@H](O)[C@H]1O [oNP-βD-Glucopyranoside],Activity (%),[2],18%
O=[N+]([O-])c1ccccc1O[C@@H]1O[C@H](CO)[C@@H](O)[C@H](O)[C@@H]1O [oNP-βD-Mannopyranoside],Activity (%),[2],0%
O=[N+]([O-])c1ccccc1O[C@@H]1OC[C@@H](O)[C@H](O)[C@H]1O [oNP-βD-Xylopyranoside],Activity (%),[2],38%
O=[N+]([O-])c1ccc(O[C@H]2O[C@H](CO)[C@H](O)[C@H](O)[C@H]2O)cc1 [pNP-αD-Galactopyranoside],Activity (%),[2],0%
"O=[N+]([O-])c1ccc(O[C@@H]2O[C@H](CO)[C@@H](O[C@@H]3O[C@H](CO)[C@@H](O)[C@H](O)[C@H]3O)[C@H](O)[C@H]2O)cc1 [pNP-βD-Cellobioside, p-nitrophenyl-beta-D-cellobioside]",Activity (%),[2],60%
"O=[N+]([O-])c1ccc(O[C@@H]2O[C@H](CO)[C@@H](O[C@@H]3O[C@H](CO)[C@@H](O[C@@H]4O[C@H](CO)[C@@H](O[C@@H]5O[C@H](CO)[C@@H](O)[C@H](O)[C@H]5O)[C@H](O)[C@H]4O)[C@H](O)[C@H]3O)[C@H](O)[C@H]2O)cc1 [pNP-βD-Cellotetraoside, p-nitrophenyl-beta-D-cellotetraoside]",Activity (%),[2],73%
"O=[N+]([O-])c1ccc(O[C@@H]2O[C@H](CO)[C@@H](O[C@@H]3O[C@H](CO)[C@@H](O[C@@H]4O[C@H](CO)[C@@H](O)[C@H](O)[C@H]4O)[C@H](O)[C@H]3O)[C@H](O)[C@H]2O)cc1 [pNP-βD-Cellotrioside, p-nitrophenyl-beta-D-cellotrioside]",Activity (%),[2],98%
C[C@H]1O[C@@H](Oc2ccc([N+](=O)[O-])cc2)[C@H](O)[C@@H](O)[C@H]1O [pNP-βD-Fucopyranoside],Activity (%),[2],55%
O=[N+]([O-])c1ccc(O[C@@H]2O[C@H](CO)[C@H](O)[C@H](O)[C@H]2O)cc1 [pNP-βD-Galactopyranoside],Activity (%),[2],0%
"O=[N+]([O-])c1ccc(O[C@@H]2O[C@H](CO)[C@@H](O)[C@H](O)[C@H]2O)cc1 [pNP-βD-Glucopyranoside, p-nitrophenyl-beta-D-glucopyranoside]",Activity (%),[2],100%
O=C(O)[C@H]1O[C@@H](Oc2ccc([N+](=O)[O-])cc2)[C@H](O)[C@@H](O)[C@@H]1O [pNP-βD-Glucuronide],Activity (%),[2],0%
O=[N+]([O-])c1ccc(O[C@@H]2OC[C@@H](O)[C@H](O)[C@H]2O)cc1 [pNP-βD-Xylopyranoside],Activity (%),[2],0%
O=[N+]([O-])c1ccc(O[C@H]2OC[C@H](O)[C@H](O)[C@H]2O)cc1 [pNP-βL-Arabinopyranoside],Activity (%),[2],0%
Cellobiose,Activity (%),"[1]; percent activity rankings based on Vmax, cellobiose = 100",100%
B1,Results of RfLacB isoform compared with RfLacA against all substrates,[3],statistically indistinguishable results to RfLacA
same,oxidation of ABTS and syringaldazine,[3],unable to oxidize
B2,activity toward pNPC relative to uninfected control larvae,[4],significantly higher activity
same,activity toward pNPC relative to uninfected control larvae,[4]; listed as recombinant Cell-3,higher exoglucanase (cellulase) activity than do uninfected homogenates
same,stability of recombinant protein,"[4]; pNPC activity in filtrates, over time and after freeze-thaw cycles",reduced stability
